# Measured values taken from PubChem BioAssay (NCI).
#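 Compound exposure: 48 hours, 5 concentrations, 96-well plates. Definition used: TGI = concentration required for complete inhibition of growth.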
# Tested on: OVCAR-4 ovarian
# Experiment: growth of human tumour cells (NCI), 48 h
row,Structure (SMILES),TGI [µM]
1,Cc1cc(=O)n2nc(CN3CCCCC3)sc2n1,> 100
2,CC(=O)OC1(C)C=CC(=O)C=C1,> 100
3,COC(=O)C(COC(C)=O)NC(=O)/C=C/c1ccc(O)c(OC(C)=O)c1 (centres undefined),> 100
4,CCOP(=O)(CN1CCNCCNCC1)OCC,> 100
5,CC12CCC([C@H](C(O)C3CCCCC3)C1=O)C2(C)C (some centres undefined),> 100
6,O=C1C(Cl)C(c2cccc(Cl)c2)N1c1ccc(-n2c(=S)[nH]c3ccccc3c2=O)cc1 (centres undefined),39.6
7,COc1cc2c(cc1OC)CCc1cc(OC)c(OC)cc1CC2,> 100
8,CC(=O)N[C@@H](Cc1ccc(O)cn1)C(=O)NCc1cccc(Cl)c1,> 100
9,CNc1nc2n(CCO)c(-c3ccccc3)c(-c3ccccc3)nc-2c(=O)n1,> 50
10,NC(CCC(=O)O)C(=O)N1CCN(c2nc(N3CCCC3)c3nc(Cl)c(NCc4ccccc4)nc3n2)CC1 (centres undefined),29.1
11,c1ccc2c(c1)nc1n2CNC1,> 100
12,CN(C)/C=N/S(=O)(=O)c1nn2c(C=O)c(-c3ccc(Cl)cc3)nc2s1,3.58
13,COC(=O)C1=C(C(=O)OC)c2cc(OC)ccc2C(C(=S)N(C)C)S1 (centres undefined),> 100
14,O=C1CCCC2(c3ccccc3)Nc3ccccc3N12 (centres undefined),> 100

# Tested on: COLO 205 colon
# Experiment: growth of human tumour cells (NCI), 48 h
row,Structure (SMILES),TGI [µM]
1,Cc1cc(=O)n2nc(CN3CCCCC3)sc2n1,> 100
2,CC(=O)OC1(C)C=CC(=O)C=C1,> 100
3,COc1ccc(C2C3=C(Nc4ncnn42)c2ccccc2OC3c2ccccc2)cc1 (centres undefined),> 100
4,O=c1oc2cc(O)ccc2c(O)c1C(c1ccccc1F)c1c(O)c2ccc(O)cc2oc1=O,> 100
5,COC(=O)C(COC(C)=O)NC(=O)/C=C/c1ccc(O)c(OC(C)=O)c1 (centres undefined),> 100
6,CCOP(=O)(CN1CCNCCNCC1)OCC,> 100
7,CC12CCC([C@H](C(O)C3CCCCC3)C1=O)C2(C)C (some centres undefined),> 100
8,O=C1C(Cl)C(c2cccc(Cl)c2)N1c1ccc(-n2c(=S)[nH]c3ccccc3c2=O)cc1 (centres undefined),77.9
9,COc1cc2c(cc1OC)CCc1cc(OC)c(OC)cc1CC2,> 100
10,CC(=O)N[C@@H](Cc1ccc(O)cn1)C(=O)NCc1cccc(Cl)c1,> 100
11,Cc1nn(C(=O)Cc2ccccc2)c2c1C(c1ccc(N(C)C)cc1)SC(N)=N2 (centres undefined),> 100
12,CNc1nc2n(CCO)c(-c3ccccc3)c(-c3ccccc3)nc-2c(=O)n1,> 50
13,NC(CCC(=O)O)C(=O)N1CCN(c2nc(N3CCCC3)c3nc(Cl)c(NCc4ccccc4)nc3n2)CC1 (centres undefined),23.9
14,c1ccc2c(c1)nc1n2CNC1,> 100
15,Cc1ccc(C)c(COCCOCn2ccc(N)nc2=O)c1,> 100
16,CN(C)/C=N/S(=O)(=O)c1nn2c(C=O)c(-c3ccc(Cl)cc3)nc2s1,2.81
17,NNc1nncc2n[nH]nc12,> 100
18,COC(=O)C1=C(C(=O)OC)c2cc(OC)ccc2C(C(=S)N(C)C)S1 (centres undefined),> 100
19,O=C1CCCC2(c3ccccc3)Nc3ccccc3N12 (centres undefined),> 100

# Tested on: CCRF-CEM leukemia
# Experiment: growth of human tumour cells (NCI), 48 h
row,Structure (SMILES),TGI [µM]
1,Cc1cc(=O)n2nc(CN3CCCCC3)sc2n1,> 100
2,CC(=O)OC1(C)C=CC(=O)C=C1,> 100
3,COC(=O)C(COC(C)=O)NC(=O)/C=C/c1ccc(O)c(OC(C)=O)c1 (centres undefined),> 100
4,CCOP(=O)(CN1CCNCCNCC1)OCC,> 100
5,CC12CCC([C@H](C(O)C3CCCCC3)C1=O)C2(C)C (some centres undefined),> 100
6,CC(C)Oc1ccc2c(c1)OCC1Cc3ccccc3OC21 (centres undefined),> 100
7,O=C1C(Cl)C(c2cccc(Cl)c2)N1c1ccc(-n2c(=S)[nH]c3ccccc3c2=O)cc1 (centres undefined),77.5
8,COc1cc2c(cc1OC)CCc1cc(OC)c(OC)cc1CC2,> 100
9,CC(=O)N[C@@H](Cc1ccc(O)cn1)C(=O)NCc1cccc(Cl)c1,> 100
10,Cc1nn(C(=O)Cc2ccccc2)c2c1C(c1ccc(N(C)C)cc1)SC(N)=N2 (centres undefined),> 100
11,CNc1nc2n(CCO)c(-c3ccccc3)c(-c3ccccc3)nc-2c(=O)n1,> 50
12,NC(CCC(=O)O)C(=O)N1CCN(c2nc(N3CCCC3)c3nc(Cl)c(NCc4ccccc4)nc3n2)CC1 (centres undefined),26.2
13,COC(=O)C(NC(=O)c1ccccc1)c1ccco1 (centres undefined),> 100
14,c1ccc2c(c1)nc1n2CNC1,> 100
15,Cc1ccc(C)c(COCCOCn2ccc(N)nc2=O)c1,> 100
16,CN(C)/C=N/S(=O)(=O)c1nn2c(C=O)c(-c3ccc(Cl)cc3)nc2s1,0.701
17,NNc1nncc2n[nH]nc12,> 100
18,O=C1CCCC2(c3ccccc3)Nc3ccccc3N12 (centres undefined),> 100

# Tested on: BT-549 breast
# Experiment: growth of human tumour cells (NCI), 48 h
row,Structure (SMILES),TGI [µM]
1,Cc1cc(=O)n2nc(CN3CCCCC3)sc2n1,> 100
2,CC(=O)OC1(C)C=CC(=O)C=C1,> 100
3,COc1ccc(C2C3=C(Nc4ncnn42)c2ccccc2OC3c2ccccc2)cc1 (centres undefined),41.5
4,O=c1oc2cc(O)ccc2c(O)c1C(c1ccccc1F)c1c(O)c2ccc(O)cc2oc1=O,48.4
5,COC(=O)C(COC(C)=O)NC(=O)/C=C/c1ccc(O)c(OC(C)=O)c1 (centres undefined),> 100
6,CCOP(=O)(CN1CCNCCNCC1)OCC,> 100
7,CC12CCC([C@H](C(O)C3CCCCC3)C1=O)C2(C)C (some centres undefined),> 100
8,CC(C)Oc1ccc2c(c1)OCC1Cc3ccccc3OC21 (centres undefined),> 100
9,O=C1C(Cl)C(c2cccc(Cl)c2)N1c1ccc(-n2c(=S)[nH]c3ccccc3c2=O)cc1 (centres undefined),> 100
10,COc1cc2c(cc1OC)CCc1cc(OC)c(OC)cc1CC2,> 100
11,CC(=O)N[C@@H](Cc1ccc(O)cn1)C(=O)NCc1cccc(Cl)c1,> 100
12,Cc1nn(C(=O)Cc2ccccc2)c2c1C(c1ccc(N(C)C)cc1)SC(N)=N2 (centres undefined),> 100
13,CNc1nc2n(CCO)c(-c3ccccc3)c(-c3ccccc3)nc-2c(=O)n1,> 50
14,NC(CCC(=O)O)C(=O)N1CCN(c2nc(N3CCCC3)c3nc(Cl)c(NCc4ccccc4)nc3n2)CC1 (centres undefined),25.4
15,COC(=O)C(NC(=O)c1ccccc1)c1ccco1 (centres undefined),> 100
16,c1ccc2c(c1)nc1n2CNC1,> 100
17,Cc1ccc(C)c(COCCOCn2ccc(N)nc2=O)c1,> 100
18,CN(C)/C=N/S(=O)(=O)c1nn2c(C=O)c(-c3ccc(Cl)cc3)nc2s1,2.83
19,NNc1nncc2n[nH]nc12,> 100
20,COC(=O)C1=C(C(=O)OC)c2cc(OC)ccc2C(C(=S)N(C)C)S1 (centres undefined),> 100
21,O=C1CCCC2(c3ccccc3)Nc3ccccc3N12 (centres undefined),> 100

# Tested on: DU-145 prostate
# Experiment: growth of human tumour cells (NCI), 48 h
row,Structure (SMILES),TGI [µM]
1,Cc1cc(=O)n2nc(CN3CCCCC3)sc2n1,> 100
2,CC(=O)OC1(C)C=CC(=O)C=C1,> 100
3,COc1ccc(C2C3=C(Nc4ncnn42)c2ccccc2OC3c2ccccc2)cc1 (centres undefined),> 100
4,O=c1oc2cc(O)ccc2c(O)c1C(c1ccccc1F)c1c(O)c2ccc(O)cc2oc1=O,> 100
5,COC(=O)C(COC(C)=O)NC(=O)/C=C/c1ccc(O)c(OC(C)=O)c1 (centres undefined),> 100
6,CCOP(=O)(CN1CCNCCNCC1)OCC,> 100
7,CC12CCC([C@H](C(O)C3CCCCC3)C1=O)C2(C)C (some centres undefined),> 100
8,CC(C)Oc1ccc2c(c1)OCC1Cc3ccccc3OC21 (centres undefined),> 100
9,O=C1C(Cl)C(c2cccc(Cl)c2)N1c1ccc(-n2c(=S)[nH]c3ccccc3c2=O)cc1 (centres undefined),> 100
10,COc1cc2c(cc1OC)CCc1cc(OC)c(OC)cc1CC2,> 100
11,CC(=O)N[C@@H](Cc1ccc(O)cn1)C(=O)NCc1cccc(Cl)c1,> 100
12,Cc1nn(C(=O)Cc2ccccc2)c2c1C(c1ccc(N(C)C)cc1)SC(N)=N2 (centres undefined),> 100
13,CNc1nc2n(CCO)c(-c3ccccc3)c(-c3ccccc3)nc-2c(=O)n1,> 50
14,NC(CCC(=O)O)C(=O)N1CCN(c2nc(N3CCCC3)c3nc(Cl)c(NCc4ccccc4)nc3n2)CC1 (centres undefined),21.9
15,COC(=O)C(NC(=O)c1ccccc1)c1ccco1 (centres undefined),> 100
16,c1ccc2c(c1)nc1n2CNC1,> 100
17,Cc1ccc(C)c(COCCOCn2ccc(N)nc2=O)c1,> 100
18,CN(C)/C=N/S(=O)(=O)c1nn2c(C=O)c(-c3ccc(Cl)cc3)nc2s1,6.02
19,NNc1nncc2n[nH]nc12,> 100
20,COC(=O)C1=C(C(=O)OC)c2cc(OC)ccc2C(C(=S)N(C)C)S1 (centres undefined),> 100
21,O=C1CCCC2(c3ccccc3)Nc3ccccc3N12 (centres undefined),> 100

# Tested on: MDA-MB-435
# Experiment: growth of human tumour cells (NCI), 48 h
row,Structure (SMILES),TGI [µM]
1,Cc1cc(=O)n2nc(CN3CCCCC3)sc2n1,> 100
